Data reported in ChEMBL document CHEMBL1201862, “PubChem BioAssay data set” (2004).
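In this assay, cells in 96-well plates receive the compound at five concentrations for 48 hours. Endpoints are linearly interpolated between the surrounding concentrations. GI50 = concentration required for 50% inhibition of growth.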 Activity calls are given as the source filed them. No stated cut-off is given here; in the data, active = GI50 up to about 1.1 µM and inactive = higher.

What was measured:
Test in all cases: inhibition of tumour cell growth, NCI panel, 48 h
[1] = test system: MOLT-4
[2] = test system: KM12
[3] = test system: SW-620
[4] = test system: 786-0
[5] = test system: SF-295
[6] = test system: UO-31
[7] = test system: NCI-H23
[8] = test system: A498
[9] = test system: DU-145
[10] = test system: SNB-19
[11] = test system: SK-MEL-2
[12] = test system: OVCAR-8
[13] = test system: SR
[14] = test system: SK-MEL-5
[15] = test system: SN12C
[16] = test system: RXF 393
[17] = test system: HL-60
[18] = test system: NCI-H460
[19] = test system: T47D
[20] = test system: BT-549

Measured: GI50

CCOC(=O)Cc1c(C)c2ccc(OC(C)=O)c(OC(C)=O)c2oc1=O
inactive: [1] 23.6 µM | [2] 32.7 µM | [3] 20.7 µM | [4] 27.7 µM | [5] 36.7 µM | [6] 13.9 µM | [7] 22.4 µM | [8] 44.1 µM | [9] 24.9 µM | [10] 13.3 µM | [11] 49.5 µM | [12] 18.6 µM | [13] 14.3 µM | [14] 19.5 µM | [15] 41.8 µM

[O-][S+](CCCl)c1c2ccccc2nc2ccccc12 (stereo unspecified)
inactive: [1] 37.2 µM | [16] > 100 µM | [17] 29.4 µM | [2] 65.3 µM | [3] 11.3 µM | [4] 50.2 µM | [5] > 100 µM | [6] > 100 µM | [18] > 100 µM | [7] 75 µM | [8] > 100 µM | [9] 22.9 µM | [10] > 100 µM | [11] > 100 µM | [12] 85.1 µM | [13] > 100 µM | [19] > 100 µM | [15] 23.3 µM

O=[N+]([O-])c1ccc(-n2nnc(C3=NCCN3)c2-c2ccccc2)cc1
inactive: [1] > 100 µM | [16] > 100 µM | [17] > 100 µM | [2] > 100 µM | [3] > 100 µM | [4] > 100 µM | [5] > 100 µM | [6] > 100 µM | [18] > 100 µM | [7] > 100 µM | [8] > 100 µM | [10] > 100 µM | [11] > 100 µM | [12] > 100 µM | [13] > 100 µM | [14] > 100 µM | [15] > 100 µM

O=c1c2ccccc2nc(Cc2nc(-c3ccc(Cl)cc3)cs2)n1-c1ccc(Cl)cc1
inactive: [1] 30.9 µM | [16] > 100 µM | [17] 66.2 µM | [2] 41.8 µM | [3] 91.8 µM | [4] 81.3 µM | [5] 44.4 µM | [6] > 100 µM | [18] 46.2 µM | [7] 56.8 µM | [8] 68.1 µM | [9] 55.8 µM | [10] > 100 µM | [11] 28.1 µM | [12] 82.6 µM | [14] 34.4 µM | [20] 82.2 µM

CC1(C)C(=O)C=CC2(C)C1CC(O)C1(C)C2CCC2(C)C(c3ccoc3)OC(=O)C3OC321 (stereo unspecified)
inactive: [1] 5.87 µM | [16] 15 µM | [2] 14.9 µM | [3] 19.8 µM | [4] 12.2 µM | [5] 20 µM | [6] 11.4 µM | [18] 13.6 µM | [7] 12.1 µM | [8] 15.3 µM | [9] 16.4 µM | [10] 18.9 µM | [11] 11.8 µM | [12] 13.3 µM | [14] 6.43 µM | [15] 18.7 µM | [20] 18.7 µM

CC1(C)OC[C@@H]([C@H](O)C2C=CC(=O)S2)O1 (stereo partly specified)
inactive: [1] 32 µM | [16] 15 µM | [17] 8.73 µM | [2] 14.6 µM | [3] 32 µM | [4] 22.9 µM | [5] 27.5 µM | [6] 20.8 µM | [18] 28.2 µM | [7] 26.4 µM | [8] 21.4 µM | [9] 21.2 µM | [10] 43.6 µM | [11] 20.3 µM | [12] 21.2 µM | [14] 18.7 µM | [15] 27.9 µM | [20] 17.9 µM

Cc1ccc(C)n1-c1ccccc1C1C=Cn2c3c1c(=O)c(OC(C)C)c(OC(C)C)c-3n[nH]c2=O (stereo unspecified)
inactive: [1] 6.62 µM | [16] 23 µM | [17] 5.45 µM | [2] 19.9 µM | [3] 18.3 µM | [4] 20.9 µM | [5] 27 µM | [6] 64.3 µM | [18] 37.6 µM | [7] 53.8 µM | [8] > 100 µM | [9] 99.3 µM | [10] 76.2 µM | [11] 20 µM | [12] 33.7 µM | [14] 5.01 µM | [15] 42 µM | [20] 32.7 µM

COc1cc(CC2CC(c3ccc4c(c3)OCO4)OC2=O)cc(OC)c1OC (stereo unspecified)
inactive: [1] 83 µM | [16] > 100 µM | [17] > 100 µM | [2] > 100 µM | [3] > 100 µM | [4] > 100 µM | [5] > 100 µM | [6] 19.4 µM | [18] > 100 µM | [7] > 100 µM | [8] > 100 µM | [9] > 100 µM | [10] > 100 µM | [12] > 100 µM | [13] > 100 µM | [14] 43.9 µM | [19] 39 µM | [15] > 100 µM

CN(C)CCCOC(=O)C(c1ccccc1)C1(O)CCSCC1 (stereo unspecified)
inactive: [1] > 100 µM | [16] > 100 µM | [17] > 100 µM | [2] 68.2 µM | [3] 32.3 µM | [4] > 100 µM | [5] > 100 µM | [6] > 100 µM | [18] > 100 µM | [7] > 100 µM | [8] > 100 µM | [9] > 100 µM | [10] 26.8 µM | [11] > 100 µM | [12] > 100 µM | [13] > 100 µM | [14] > 100 µM | [19] > 100 µM | [15] > 100 µM

CC1(C)CC(=O)C(=CN2C(=O)CNC2=S)C(=O)C1
inactive: [1] > 100 µM | [16] 85.9 µM | [17] > 100 µM | [2] > 100 µM | [3] > 100 µM | [4] > 100 µM | [5] > 100 µM | [6] > 100 µM | [18] > 100 µM | [7] > 100 µM | [9] > 100 µM | [10] > 100 µM | [11] > 100 µM | [12] > 100 µM | [14] > 100 µM | [15] > 100 µM | [20] > 100 µM

COC(=O)C(=CNC(N)=O)C(=O)OC
inactive: [1] > 100 µM | [2] > 100 µM | [3] > 100 µM | [4] > 100 µM | [5] > 100 µM | [6] > 100 µM | [18] > 100 µM | [7] > 100 µM | [9] > 100 µM | [10] > 100 µM | [11] > 100 µM | [12] > 100 µM | [13] > 100 µM | [14] > 100 µM | [19] > 100 µM | [15] > 100 µM

N#C[C@H]1Nc2ccccc2[C@@H](O)C1O (stereo partly specified)
inactive: [1] > 100 µM | [16] > 100 µM | [17] > 100 µM | [2] > 100 µM | [3] > 100 µM | [4] > 100 µM | [5] > 100 µM | [18] > 100 µM | [7] > 100 µM | [9] > 100 µM | [11] > 100 µM | [12] > 100 µM | [13] > 100 µM | [14] > 100 µM | [19] > 100 µM | [15] > 100 µM
